Source: ChEMBL document CHEMBL5543059, “Discovery of anti-inflammatory natural flavonoids: Diverse scaffolds and promising leads for drug discovery” (Eur J Med Chem, 2023)
≈ marks a conversion by molar mass, not a printed value. Blank lines part the entries; values can stand above or below the compound they belong to.

Columns and labels:
J774.A1 [1] = assay: Anti-inflammatory activity against mouse J774.A1 cells assessed as inhibition of LPS-induced IL-1beta mRNA expression level pretreated for 30 mins followed by LPS-induction and measured after 6 hrs by RT-PCR analysis; type: functional, cell-based
RAW264.7 [2] = assay: Anti-inflammatory activity against mouse RAW264.7 cells assessed as inhibition of LPS-induced IL-1beta mRNA expression level pretreated for 30 mins followed by LPS-induction and measured after 6 hrs by RT-PCR analysis; type: functional, cell-based
BV-2 [3] = assay: Anti-inflammatory activity against mouse BV-2 cells assessed as inhibition of LPS-induced IL-1beta secretion at 25 uM pretreated for 2 hrs followed stimulated with LPS for 22 hrs by ELISA analysis relative to control; type: functional; set-up: scale not given: the % may be the effect or the level left; conditions: time 24 hrs
RAW264.7 [4] = assay: Antiinflammatory activity in mouse RAW264.7 cells assessed as reduction in iNOS protein expression at 5 to 40 uM relative to control; type: functional; set-up: scale not given: the % may be the effect or the level left; conditions: dose 5-40 µM
J774.A1 [5] = assay: Antiinflammatory activity in LPS-induced mouse J774.A1 cells assessed as reduction in IL-1beta production pretreated for 30 mins followed by LPS induction measured after 2 hrs by ELISA method; type: functional, cell-based
RAW264.7 [6] = assay: Antiinflammatory activity in LPS-induced mouse RAW264.7 cells assessed as reduction in IL-1beta production pretreated for 30 mins followed by LPS induction measured after 2 hrs by ELISA method; type: functional, cell-based
RAW264.7 [7] = assay: Antiinflammatory activity in LPS-induced mouse RAW264.7 cells assessed as reduction in TNFalpha production pretreated for 30 mins followed by LPS induction measured after 2 hrs by ELISA method; type: functional, cell-based
J774.A1 [8] = assay: Antiinflammatory activity in LPS-induced mouse J774.A1 cells assessed as reduction in TNFalpha production pretreated for 30 mins followed by LPS induction measured after 2 hrs by ELISA method; type: functional, cell-based
Rattus norvegicus [9] = assay: Antiinflammatory activity in LPS-induced Sprague-Dawley rat assessed as reduction in TNFalpha production in plasma at 20 mg/kg, ip pretreated for 30 mins followed by LPS induction measured after 4 hrs by ELISA method relative to control; type: functional; set-up: scale not given: the % may be the effect or the level left; conditions: time 4.5 hrs
Rattus norvegicus [10] = assay: Antiinflammatory activity in LPS-induced Sprague-Dawley rat assessed as reduction in IL-1beta production in plasma at 20 mg/kg, ip pretreated for 30 mins followed by LPS induction measured after 4 hrs by ELISA method relative to control; type: functional; set-up: scale not given: the % may be the effect or the level left; conditions: time 4.5 hrs
RAW264.7 [11] = assay: Anti-inflammatory activity in mouse RAW264.7 cells assessed as inhibition of LPS-induced NO production by Griess reagent assay; type: functional, cell-based
Peritoneal macrophage [12] = assay: Antiinflammatory activity in mouse peritoneal macrophages assessed as reduction in LPS-induced TNFalpha level at 20 uM incubated for 4 hrs by ELISA method relative to control; type: functional; set-up: scale not given: the % may be the effect or the level left
Neutrophil = assay: Inhibition of fMLF/CB-induced human Neutrophil activation assessed as reduction in elastase release using MeO-Suc-Ala-Ala-Pro-Val-pnitroanilide as substrate incubated for 5 mins; type: functional, cell-based
RAW264.7 [13] = assay: Antiinflammatory activity in mouse RAW264.7 cells assessed as reduction in LPS-induced iNOS expression after 24 hrs by Western blot analysis; type: functional, cell-based; conditions: RAW264.7, 24 h
RAW264.7 [14] = assay: Antiinflammatory activity in mouse RAW264.7 cells assessed as reduction in LPS-induced COX-2 expression after 24 hrs by Western blot analysis; type: functional, cell-based; conditions: RAW264.7, 24 h
B16-F10 = assay: Antiinflammatory activity in mouse B16-F10 cells assessed as decrease in LPS-induced TNFalpha expression by Western blot analysis; type: functional, cell-based
THP-1 = assay: Antiinflammatory activity in human THP-1 cells assessed as decrease in LPS-induced TNFalpha expression by Western blot analysis; type: functional, cell-based
Peritoneal macrophage [15] = assay: Antiinflammatory activity against LPS-stimulated mouse peritoneal macrophage assessed as TNF-alpha level; type: functional, cell-based
BV-2 [16] = assay: Anti-inflammatory activity in mouse BV-2 cells assessed as reduction in LPS-induced NO production pre-treated with compounds for 2 hrs followed by LPS-stimulation measured for 22 hrs by Griess reagent based analysis; type: functional, cell-based
BV-2 [17] = assay: Antiinflammatory activity in mouse BV-2 cells assessed as reduction in LPS-induced NO production incubated for 24 hrs by microplate reader analysis; type: functional, cell-based; conditions: BV-2, 24 h
RAW264.7 [18] = assay: Antiinflammatory activity in LPS-activated mouse RAW264.7 cells assessed as inhibition of ROS production at 10 uM relative to control; type: functional; set-up: scale not given: the % may be the effect or the level left
BV-2 [19] = assay: Antiinflammatory activity in LPS-induced mouse BV-2 cells assessed as reduction in COX-2 protein expression by Western blot analysis; type: functional, cell-based
BV-2 [20] = assay: Antiinflammatory activity in mouse BV-2 cells assessed as reduction in LPS-induced NO production pre-treated with compound for 1 hr followed by stimulated with LPS for 18 hrs by 2,3-diaminonaphthalene reagent based fluorescence analysis; type: functional, cell-based

- IC50 (J774.A1 [5]): 38.2 µM
- IC50 (RAW264.7 [6]): 29.2 µM
- IC50 (RAW264.7 [7]): 21.3 µM
- IC50 (J774.A1 [8]): 20.4 µM
SMILES: COc1cc(O)c(CC=C(C)C)c2oc(=O)cc(-c3ccccc3)c12
- Activity (Rattus norvegicus [9]): 41.8%
- Activity (Rattus norvegicus [10]): 55%

- IC50 (Neutrophil): 6 µM
SMILES: Cc1c(O)cc2c(c1O)C(=O)[C@H](O)[C@@H](c1ccc(O)cc1)O2

- IC50 (RAW264.7 [13]): 6.25 µg/mL (≈ 19.5 µM)
- IC50 (RAW264.7 [14]): 6.25 µg/mL (≈ 19.5 µM)
SMILES: O=C1c2c(O)cc(O)cc2O[C@H](c2cc(O)c(O)c(O)c2)[C@H]1O [AMPELOPSIN]

- IC50 (B16-F10): 0.6 µM
- IC50 (THP-1): 1.1 µM
SMILES: COc1cc(O)cc(O)c1C(=O)/C=C/c1ccccc1 [CARDAMOMIN]

- IC50 (Peritoneal macrophage [15]): 16.9 µM
SMILES: O=c1c(-c2ccc(O)cc2)coc2cc(O)cc(O)c12 [GENISTEIN]

- IC50 (BV-2 [19]): 0.625 µg/mL (≈ 1.85 µM)
SMILES: C=CC(C)(C)c1cc(/C=C/C(=O)c2ccc(O)cc2)c(OC)cc1O [LICOAGROCHACONE A]
- Activity (RAW264.7 [18]): 80%

- IC50 (BV-2 [20]): 31.4 µM
SMILES: O=C1/C(=C/c2ccc(O)c(O)c2)Oc2cc(O)ccc21 [SULFURETIN]

The next lines start with the compound.

SMILES: COc1cc(O)c(C(=O)/C=C/c2ccccc2)c(O)c1
- IC50 (J774.A1 [1]): 42.8 µM
- IC50 (RAW264.7 [2]): 43.1 µM

SMILES: COc1ccc(-c2cc(=O)c3c(O)cc(OC)c(O)c3o2)cc1
- Activity (BV-2 [3]): >50%

SMILES: CC(C)=CCc1c([C@H]2Oc3cc(O)cc(O)c3C(=O)[C@@H]2O)cc2c(c1O)OC(C)(C)C=C2
- Activity (RAW264.7 [4]): 42.8%

SMILES: CC(C)=CCC[C@@]1(C)C=Cc2c(ccc(C(=O)/C=C/c3ccc(O)c(O)c3)c2O)O1
- IC50 (RAW264.7 [11]): 22.7 µM

SMILES: Oc1cc(O)c2c(c1)O[C@H](c1cc(O)c(O)c(O)c1)CC2
- Activity (Peritoneal macrophage [12]): 22.6%

SMILES: O=C(/C=C/c1ccc(O)cc1)c1ccc(O)cc1O [ISOLIQUIRITIGENIN]
- IC50 (BV-2 [16]): 5.22 µM
- IC50 (BV-2 [17]): 6.78 µM
